Reference: US20020072606A1, “Chemokine receptor antagonists” (Warner-Lambert Company, priority 1999, published 2002)
Structures can show the parent of a compound that is named as a salt.

First: COc1ccc(/C=C2\CC3CN4CCc5c([nH]c6ccccc56)[C@]4(C)CC3C[C@@H]2O)cc1OC (stereo partly drawn) [Example 22, [2R-[2α(E),4aα, 13bβ, 14aβ]]-3-(3,4-Dimethoxy-benzylidene)-13b-methyl-1,2,3,4,4a,5,7,8,13,13b,14,14a-dodecahydro-indolo[2′,3′:3,4]pyrido[1,2-b]-isoquinolin-2-ol]
Second: COc1cccc(/C=C2\CC3CN4CCc5c([nH]c6ccccc56)[C@]4(C)CC3C[C@@H]2O)c1 (stereo partly drawn) [Example 23]
The melting point of the first is lower: 118 to 121 °C for the first, 140 to 142 °C for the second.

First: C[C@@]12CC3C[C@H](O)/C(=C/c4ccc(Cl)c(Cl)c4)CC3CN1CCc1c2[nH]c2ccccc12 (stereo partly drawn) [Example 25, [2R-[2α(E),4aα,13bβ, 14aβ]]-3-(3,4-Dichloro-benzylidene)-13b-methyl-1,2,3,4,4a,5,7,8,13,13b,14,14a-dodecahydro-indolo[2′,3′:3,4]pyrido[1,2-b]-isoquinolin-2-ol]
Second: C[C@@]12CC3CC(=O)/C(=C/c4ccc(Cl)c(Cl)c4)CC3CN1CCc1c2[nH]c2ccccc12 (stereo partly drawn) [Example 21, [4aR-[(E),4aα,13bβ, 14aβ]]-3-(3,4-Dichloro-benzylidene)-13b-methyl-3,4,4a,5,7,8,13,13b,14,14a-decahydro-1H-indolo[2′,3′:3,4]pyrido[1,2-b]-isoquinolin-2-one]
The melting point of the first is lower: 125 to 130 °C for the first, 140 to 145 °C for the second.

First: C=CC[C@@]12CC3C[C@H](O)CCC3CN1CCc1c2[nH]c2ccccc12 (stereo partly drawn) [Example 2, [2R-(2α,4aα, 13β,14aβ)]-13b-Allyl-1,2,3,4,4a,5,7,8,13,13b,14,14a-dodecahydro-indolo[2′,3′:3,4]pyrido[1,2-b]isoquinolin-2-ol]
Second: C=CC[C@@]12CC3CC(=O)CCC3CN1CCc1c2[nH]c2ccccc12 (stereo partly drawn) [Example 5, [2R-(2α,4aα,13β,14aβ)]-13b-Allyl-3,4,4a,5,7,8,13,13b,14,14a-decahydro-1H-indolo[2′,3′:3,4]pyrido[1,2-b]isoquinolin-2-one]
The melting point of the first is higher: 228 to 230 °C for the first, 220 to 223 °C for the second.

Compared with `COc1cc(/C=C2\CC3CN4CCc5c([nH]c6ccccc56)[C@]4(C)CC3CC2=O)cc(OC)c1` (stereo partly drawn) [Example 20, [4aR-[(E),4aα,13bβ, 14aβ]]-3-(3,5-Dimethoxy-benzylidene)-13b-methyl-3,4,4a,5,7,8,13,13b,14,14a-decahydro-1H-indolo[2′,3′:3,4]pyrido[1,2-b]-isoquinolin-2-one], `COc1cccc(/C=C2\CC3CN4CCc5c([nH]c6ccccc56)[C@]4(C)CC3CC2=O)c1` (stereo partly drawn) [Example 19, [4aR-[(E),4aα, 13bβ,14aβ]]3-(3-Methoxy-benzylidene)-13b-methyl-3,4,4a, 5,7,8,13,13b,14,14a-decahydro-1H-indolo[2′,3′:3,4]pyrido[1,2-b]-isoquinolin-2-one] is higher in melting point: 110 to 120 °C for the first, 125 to 130 °C for the second.

Compared with `C[C@@]12CC3CC(N)/C(=C/c4ccccc4)CC3CN1CCc1c2[nH]c2ccccc12` (stereo in doubt) (as salt: trifluoroacetic acid salt) [Example 28, 3-Benzylidene-13b-methyl-1,2,3,4,4a,5,7,8,13,13b,14,14a-dodecahydro-indolo[2′,3′: 3,4]pyrido[1,2-b]isoquinolin-2-ylamine], `C[C@@]12CC3CC(=NO)/C(=C/c4ccccc4)CC3CN1CCc1c2[nH]c2ccccc12` (stereo partly drawn) [Example 27, [4aR-[(E),4aα,13bβ,14aβ]]-3-Benzylidene-13b-methyl-3,4,4a,5,7,8,13,13b,14,14a-decahydro-1H-indolo[2′,3′:3,4]pyrido[1 ,2-b]-isoquinolin-2-one oxime] is lower in melting point: 203 to 210 °C for the first, 142 to 145 °C for the second.

`CCC[C@@]12CC3C[C@H](O)/C(=C/c4ccccc4)CC3CN1CCc1c2[nH]c2ccccc12` (stereo partly drawn) [Example 11, [2S-(2α,4aα,13β, 14aβ)]-3-Benzylidine-13b-propyl-1,2,3,4,4a,5,7,8,13,13b,14,14a-dodecahydro-indolo[2′,3′:3,4]pyrido[1,2-b]-isoquinolin-2-ol] and `CCCC[C@@]12CC3C[C@H](O)/C(=C/c4ccccc4)CC3CN1CCc1c2[nH]c2ccccc12` (stereo partly drawn) [Example 12, [2S-(2α,4aα,13β,14aβ)]-3-Benzylidine-13b-butyl-1,2,3,4,4a,5,7,8,13,13b,14,14a-dodecahydro-1-indolo[2′,3′:3,4]pyrido[1,2-b]-isoquinolin-2-ol] cannot be ordered by melting point: 224 to 226 °C for the first, 222 to 225 °C for the second.

Compared with `COc1cc(/C=C2\CC3CN4CCc5c([nH]c6ccccc56)[C@]4(C)CC3C[C@@H]2O)cc(OC)c1` (stereo partly drawn) [Example 24, [2R-[2α(E),4aα,13bβ,14aβ]]-3-(3,5-Dimethoxy-benzylidene)-13b-methyl-1,2,3,4,4a,5,7,8,13,13b,14,14a-dodecahydro-indolo[2′,3′:3,4]pyrido[1,2-b]-isoquinolin-2-ol], `COc1ccc(/C=C2\CC3CN4CCc5c([nH]c6ccccc56)[C@]4(C)CC3CC2=O)cc1OC` (stereo partly drawn) [Example 18, [4aR-[(E),4aα, 13bβ, 14aβ]]-3-(3,4-Dimethoxy-benzylidene)-13b-methyl-3,4,4a,5,7,8,13,13b,14,14a-decahydro-1H-indolo[2′,3′:3,4]pyrido[1,2-b]-isoquinolin-2-one] is lower in melting point: 128 to 132 °C for the first, 120 to 125 °C for the second.

For `C=CC[C@@]12CC3C[C@H](O)/C(=C/c4ccccc4)CC3CN1CCc1c2[nH]c2ccccc12` (stereo partly drawn) [Example 10, [2S-(2α,4aα,13β,14aα)]-13b-Allyl-3-benzylidene-1,2,3,4,4a,5,7,8,13,13b,14,14a-dodecahydro-indolo[2′,3′:3,4]pyrido[1,2-b]isoquinolin-2-ol], the melting point was 211 to 213 °C.

For `CCC[C@@]12CC3C[C@H](O)CCC3CN1CCc1c2[nH]c2ccccc12` (stereo partly drawn) [Example 3, [2R-(2α,4aα,13β,14aβ)]-13b-Propyl-1,2,3,4,4a,5,7,8,13,13b,14,14a-dodecahydro-indolo[2′,3′:3,4]pyrido[1,2-b]isoquinolin-2-ol], the melting point was 195 °C (dec.).
With `CCC[C@@]12CC3CC(=O)CCC3CN1CCc1c2[nH]c2ccccc12` (stereo partly drawn) [Example 6, [2R-(2α,4aα, 13β, 14aβ)]-13b-Propyl-3,4,4a,5,7,8,13,13b,14,14a-decahydro-1H-indolo[2′,3′;3,4]pyrido[1,2-b]isoquinolin-2-one] the melting point was 255 °C (dec.).
In the case of `CCCC[C@@]12CC3C[C@H](O)CCC3CN1CCc1c2[nH]c2ccccc12` (stereo partly drawn) [Example 1, [2R-(2α,4aα,13β,14aβ)]-13b-Butyl-1,2,3,4,4a,5,7,8,13,13b,14,14a-dodecahydro-indolo[2′,3′:3,4]pyrido[1,2-b]isoquinolin-2-ol], the melting point is reported as 235 °C (dec.).
